Experimental data reported in EP4786484A1, “CYCLIC PEPTIDE COMPOUND AND USE THEREOF” (Shenzhen Zhongge Biological Technology Co., Ltd., priority 2023, dated 2026).
Where “and” joins values, the source holds several entries; their conditions need not be identical. Identical values can stand only once. Residues, ends and D or L forms follow the SMILES beside them.

Columns and labels:
[1] = tested on: Fibroblasts of human origin; experiment: Fibroblast cytotoxicity test (MTT); format: cell-based; conditions: Positive control 10% DMSO, 24 h, 1440 min
Method: A. Fibroblast cytotoxicity test
Test materials: Fibroblasts of human origin (Guangdong Boxi Biotechnology Co., Ltd., Lot No. Fb20081902), DMEM culture medium (Gibco, 23042301, expiration date on 230522), PBS (Solarbio, P1010), MTT (Sigma, M5655), DMSO (Sigma, D4540-1L), CO2 incubator (Thermo, 150I), super-clean bench (AIRTECH, SW-CJ-1F), inverted microscope (Olympus, CKX53).
Test methods: • 1) Cell inoculation: After cell resuscitation, the cells were inoculated into 96-well plates when the plating rate reached around 60%, and were incubated overnight in an incubator (37°C, 5% CO2). • 2) Test grouping: The blank group, solvent control group, positive control group, and sample group were set for the test. In the sample group, 7 concentration gradients were set for each sample and 3 duplicate wells were set for each concentration gradient. • 3) Formulation of solutions: Sample working solutions at different concentrations were formulated based on the test concentrations of 0.0781 µM, 0.1563 µM, 0.3125 µM, 0.625 µM, 1.25 µM, 2.5 µM, and 5 µM. • 4) Administration: Administration was performed when the cell plating rate in the 96-well plates reached 50% to 60%. 200 µL of culture medium per well was added for the solvent control group; 200 µL of culture medium containing 10% DMSO per well was added for the positive control group; 200 µL of culture medium containing the sample at a corresponding concentration per well was added for the sample group; The blank group had no cell inoculation, for which only 200 µL of cell culture medium was added. After the administration was complete, the 96-well plates were incubated in an incubator (37°C, 5% CO2) for 24 h. • 5) Detection: After 24 h of cell incubation and culture, the supernatant was discarded, and MTT working solution (0.5 mg/mL) was added. Incubation was performed at 37°C for 4 h in the dark. After the incubation was completed, the supernatant was discarded and 150 µL DMSO was added to each well. The OD value was read at 490 nm. • 6) Calculation of relative viability of cells: Calculation was performed according to the formula below: Relative viability of cells = (Sample well OD−Blank well OD)/(Solvent control well OD−Blank well OD) × 100%. [formula]

hyaluronic acid (HA) = experiment: Hyaluronic acid (HA) elevation effect in fibroblasts (ELISA); format: cell-based, human; set-up: HA elevation effect in the fibroblasts: unit not given here; conditions: 1 µM, 24 h; for HA elevation effect in the fibroblasts: ELISA, Blank control (BC) 1402.44; for hyaluronic acid (HA) content compared to the BC: result in words
Excerpt: (§1) B. Collagen I (type I collagen) elevation effect in fibroblasts, hyaluronic acid (HA) elevation effect in fibroblasts, and elastin (ELN) elevation effect in fibroblasts
(§2) Test materials: Fibroblasts of human origin (Guangdong Boxi Biotechnology Co., Ltd., Lot No. Fb20081902), DMEM culture medium (Gibco, 23042301, expiration date 230522), PBS (Solarbio, P1010), TGF-β1 (Peprotech, 230504), Collagen I ELISA Kit (Cusabio, B21025824), Elastin ELISA kit (Abcam, GR3446070-2), HA ELISA kit (RD, P325066). CO2 incubator (Thermo, 1501), super-clean bench (AIRTECH, SW-CJ-1F), microplate reader (BioTek, Epoch).
(§3) Test methods: • 1) Inoculation: After cell resuscitation, the cells were inoculated into 6-well plates when the plating rate reached around 60%, and were incubated overnight in an incubator (37°C, 5% CO2). • 2) Formulation of solutions: The cyclic peptide compounds in the sample group, PC2 (Biotinoyl-GHK, [drawing 2] ) and PC3 [drawing 3] in the positive reference group were all at the concentration of 1 µM, and the test substance working solutions were formulated. Only the cell culture medium was added for the blank control group (BC). • 3) Administration: When the cell plating rate in the 6-well plates reached 40% to 60%, administration was performed at 2 mL per well. 3 duplicate wells were set for each group. Incubation was performed in an incubator (37°C, 5% CO2) for 24 h. • 4) ELISA assay: The ELISA assay was performed according to the instructions of the ELISA kit, with the detection indicators being Collagen I elevation effect in the fibroblasts, HA elevation effect in the fibroblasts, and elastin elevation effect in the fibroblasts.

elastin (ELN) = experiment: Elastin (ELN) elevation effect in fibroblasts (ELISA); format: cell-based, human; set-up: Elastin elevation effect in the fibroblasts: unit not given here; conditions: 1 µM, 24 h; for Elastin elevation effect in the fibroblasts: ELISA, Blank control (BC) 756.52; for elastin content compared to the BC: result in words
Excerpt: as §1, §2, §3

[2] = tested on: Collagen I (type I collagen); experiment: Collagen I elevation effect in fibroblasts (ELISA); format: cell-based, human; set-up: Collagen I elevation effect in the fibroblasts: unit not given here; conditions: 1 µM, 24 h; for Collagen I elevation effect in the fibroblasts: ELISA, Blank control (BC) 35.6; for type I collagen (Collagen I) content compared to the BC: result in words
Excerpt: as §1, §2, §3

Row | SMILES | Relative viability of cells [1] | HA elevation effect in the fibroblasts (hyaluronic acid (HA)) | hyaluronic acid (HA) content compared to the BC (hyaluronic acid (HA)) | Elastin elevation effect in the fibroblasts (elastin (ELN)) | elastin content compared to the BC (elastin (ELN)) | Collagen I elevation effect in the fibroblasts [2] | type I collagen (Collagen I) content compared to the BC [2]
1 | C[S+](C)[O-] [10% DMSO, DMSO] | 0.30% and 1.87% and 1.62% and 1.17% and 0.61% and 2.07% and 0.54% and 0.43% | – | – | – | – | – | –
2 | C[C@@H]1NC(=O)[C@H](CCCCN)NC(=O)[C@H](Cc2c[nH]cn2)NC(=O)CNC(=O)[C@@H]2CCCN2C(=O)[C@H](Cc2ccccc2)NC1=O [compound 52] (cyclo(AFPGHK)) | – | 2900.83 | significant increase | 1043.27 | significant increase | – | –
3 | CC[C@H](C)[C@@H]1NC(=O)[C@H](CCCCN)NC(=O)[C@H](Cc2c[nH]cn2)NC(=O)CNC(=O)[C@@H]2CCCN2C(=O)[C@H](CC(C)C)NC1=O [compound 196] (cyclo(GHKILP)) | – | 2305.13 | significant increase | 1175.6 | significant increase | – | –
4 | CC[C@H](C)[C@@H]1NC(=O)[C@H](CCCCN)NC(=O)[C@H](Cc2c[nH]cn2)NC(=O)CNC(=O)[C@@H]2CCCN2C(=O)[C@H](CCSC)NC1=O [compound 205] (cyclo(GHKIMP)) | – | 2641.21 | significant increase | 1074.17 | significant increase | 49.25 | significant increase
5 | CC[C@H](C)[C@@H]1NC(=O)[C@H](CCCCN)NC(=O)[C@H](Cc2c[nH]cn2)NC(=O)CNC(=O)[C@@H]2CCCN2C(=O)[C@H](Cc2ccccc2)NC1=O [compound 214] (cyclo(FPGHKI)) | – | 1965.3 | significant increase | 1050.82 | significant increase | 42.51 | significant increase
6 | CC[C@H](C)[C@@H]1NC(=O)[C@H](CCCCN)NC(=O)[C@H](Cc2c[nH]cn2)NC(=O)CNC(=O)[C@@H]2CCCN2C(=O)[C@H](Cc2c[nH]c3ccccc23)NC1=O [compound 232] (cyclo(GHKIWP)) | – | – | – | 1001.84 | significant increase | 67.93 | significant increase
7 | CC(C)C[C@@H]1NC(=O)[C@H](CCCCN)NC(=O)[C@H](Cc2c[nH]cn2)NC(=O)CNC(=O)[C@@H]2CCCN2C(=O)[C@H](C)NC1=O [compound 250] (cyclo(APGHKL)) | – | 2142.56 | significant increase | 1051.64 | significant increase | 55.85 | significant increase
8 | CC[C@H](C)[C@@H]1NC(=O)[C@H](CC(C)C)NC(=O)[C@H](CCCCN)NC(=O)[C@H](Cc2c[nH]cn2)NC(=O)CNC(=O)[C@@H]2CCCN2C1=O [compound 268] (cyclo(GHKLIP)) | – | – | – | – | – | 61.46 | significant increase
9 | CC(C)C[C@@H]1NC(=O)[C@H](CCCCN)NC(=O)[C@H](Cc2c[nH]cn2)NC(=O)CNC(=O)[C@H](C)NC(=O)[C@H](Cc2ccccc2)NC1=O [compound 289] (cyclo(AGHKLF)) | – | 1978.48 | significant increase | 1034.59 | significant increase | 41 | significant increase
10 | CC[C@H](C)[C@@H]1NC(=O)[C@H](Cc2ccccc2)NC(=O)[C@H](CC(C)C)NC(=O)[C@H](CCCCN)NC(=O)[C@H](Cc2c[nH]cn2)NC(=O)CNC1=O [compound 291] (cyclo(FIGHKL)) | – | 2477.91 | significant increase | 1177.19 | significant increase | – | –
11 | CC(C)C[C@@H]1NC(=O)[C@H](CCCCN)NC(=O)[C@H](Cc2c[nH]cn2)NC(=O)CNC(=O)[C@H](C(C)C)NC(=O)[C@H](Cc2ccccc2)NC1=O [compound 297] (cyclo(FVGHKL)) | – | 2212.6 | significant increase | 923.52 | significant increase | 52.28 | significant increase
12 | CSCC[C@@H]1NC(=O)[C@H](CCCCN)NC(=O)[C@H](Cc2c[nH]cn2)NC(=O)CNC(=O)[C@@H]2CCCN2C(=O)CNC1=O [compound 340] (cyclo(GHKMGP)) | – | – | – | 1304.87 | significant increase | 90.07 | significant increase
13 | CC(C)[C@@H]1NC(=O)[C@H](C)NC(=O)[C@H](Cc2ccccc2)NC(=O)[C@H](CCCCN)NC(=O)[C@H](Cc2c[nH]cn2)NC(=O)CNC1=O [compound 414] (cyclo(AVGHKF)) | – | 1926.61 | significant increase | 1124.58 | significant increase | 40.54 | significant increase
14 | CSCC[C@@H]1NC(=O)[C@@H]2CCCN2C(=O)[C@H](C(C)C)NC(=O)[C@H](CCCCN)NC(=O)[C@H](Cc2c[nH]cn2)NC(=O)CNC1=O [compound 707] (cyclo(GHKVPM)) | – | – | – | – | – | 66.21 | significant increase
15 | CC(C)[C@@H]1NC(=O)[C@H](CCCCN)NC(=O)[C@H](Cc2c[nH]cn2)NC(=O)CNC(=O)[C@H](Cc2c[nH]c3ccccc23)NC(=O)[C@@H]2CCCN2C1=O [compound 710] (cyclo(GHKVPW)) | – | – | – | 1207.29 | significant increase | 110.87 | significant increase
